In US6133292A, “Diaryl-5-alkyl-5-methyl-2-(5H)-furanones as selective cyclooxygenase-2-inhibitors” (Merck Frosst Canada & Co., priority 1998, dated 2000):

What was measured:
COX-2 = target: T1, COX-2 (Homo sapiens, UniProt P35354); assay: Human whole blood assay, COX-2 (LPS-induced PGE2 production); type: cell-based; set-up: incubation of human whole blood with LPS, which induces COX-2; from tissue; host or cells: fresh heparinized human whole blood from male and female volunteers, LPS-stimulated; details: 24 hours at 37° C, read-out: HWB Cox-2 (IC50, inhibition of PGE2 production)
T1 sequence (P35354 18-604): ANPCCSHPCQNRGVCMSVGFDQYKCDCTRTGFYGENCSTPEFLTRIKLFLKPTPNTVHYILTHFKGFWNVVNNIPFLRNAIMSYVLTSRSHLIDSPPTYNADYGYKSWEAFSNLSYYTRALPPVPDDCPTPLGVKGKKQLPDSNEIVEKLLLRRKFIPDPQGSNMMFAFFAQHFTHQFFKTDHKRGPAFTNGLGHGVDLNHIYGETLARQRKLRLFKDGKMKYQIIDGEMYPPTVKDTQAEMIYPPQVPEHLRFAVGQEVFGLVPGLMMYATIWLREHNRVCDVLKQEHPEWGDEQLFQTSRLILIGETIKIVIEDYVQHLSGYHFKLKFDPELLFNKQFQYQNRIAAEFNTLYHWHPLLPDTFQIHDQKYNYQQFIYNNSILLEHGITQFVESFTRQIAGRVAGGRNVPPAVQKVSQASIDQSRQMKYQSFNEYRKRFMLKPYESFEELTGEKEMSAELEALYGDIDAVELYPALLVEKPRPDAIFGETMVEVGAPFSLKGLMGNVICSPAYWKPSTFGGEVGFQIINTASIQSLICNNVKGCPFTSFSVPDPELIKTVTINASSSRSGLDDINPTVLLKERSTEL
Procedure: (§1) Human whole blood provides a protein and cell-rich milieu appropriate for the study of biochemical efficacy of anti-inflammatory compounds such as selective COX-2 inhibitors. […] This is consistent with the observation that COX-2 inhibitors have no effect on PGE2 production in normal blood. These inhibitors are active only after incubation of human whole blood with LPS, which induces COX-2. This assay can be used to evaluate the inhibitory effect of selective COX-2 inhibitors on PGE2 production. As well, platelets in whole blood contain a large amount of the COX-1 enzyme. Immediately following blood clotting, platelets are activated through a thrombin-mediated mechanism. This reaction results in the production of thromboxane B2 (TXB2) via activation of COX-1. Thus, the effect of test compounds on TxB2 levels following blood clotting can be examined and used as an index for COX-1 activity. Therefore, the degree of selectivity by the test compound can be determined by measuring the levels of PGE2 after LPS induction (COX-2) and TxB2 following blood clotting (COX-1) in the same assay.
A. COX-2 (LPS-induced PGE9 production)
Fresh blood is collected in heparinized tubes by venipuncture from both male and female volunteers. The subjects have no apparent inflammatory conditions and have not taken any NSAIDs for at least 7 days prior to blood collection. Plasma is immediately obtained from a 2 mL blood aliquot to use as blank (basal levels of PGE2). The remaining blood is incubated with LPS (100 μg/ml final concentration, Sigma Chem, #L-2630 from E. coli; diluted in 0.1% BSA (Phosphate buffered saline) for 5 minutes at room temperature. Five hundred μL aliquots of blood are incubated with either 2 μL of vehicle (DMSO) or 2 μL of a test compound at final concentrations varying from 10 nM to 30 μM for 24 hours at 37° C. At the end of the incubation, the blood is centrifuged at 12,000 x g for 5 minutes to obtain plasma. A 100 μL aliquot of plasma is mixed with 400 μL of methanol for protein precipitation. The supernatant is obtained and is assayed for PGE2 using a radioimmunoassay kit (Amersham, RPA#530) after conversion of PGE2 to its methyl oximate derivative according to the manufacturer's procedure.
Compounds of the present invention are inhibitors of COX-2 and are thereby useful in the treatment of COX-2 mediated diseases as enumerated above. The activities of the compounds against cyclooxygenase may be seen in the representative results shown below. In the assay, inhibition is determined by measuring the amount of prostaglandin E2 (PGE2) synthesized in the presence of arachidonic acid, COX-1 or COX-2 and a putative inhibitor. The IC50 values represent the concentration of putative inhibitor required to lower PGE2 synthesis to 50% of that obtained as compared to the uninhibited control.

COX-1 = COX-1 (Homo sapiens, UniProt P23219); assay: Human whole blood assay, COX-1 (clotting-induced TxB2 production); type: cell-based; set-up: platelets in whole blood contain a large amount of the COX-1 enzyme; from tissue; host or cells: fresh human whole blood without anticoagulant, platelets; details: clotting-induced TxB2, 1 hour at 37° C, read-out: HWB Cox-1 (IC50)
Procedure: as §1
B. COX-1 (Clotting-induced TxB2 production)
Fresh blood is collected into vacutainers containing no anticoagulants. […] The tubes are vortexed and incubated at 37° C. for 1 hour to allow blood to clot. At the end of incubation, serum is obtained by centrifugation (12,000 x g for 5 min.). A 100 μL aliquot of serum is mixed with 400 μL of methanol for protein precipitation. The supernatant is obtained and is assayed for TxB2 using a enzyme immunoassay kit (Cayman, #519031) according to the manufacturer's instruction. […]

COX-1, sequence (P23219 24-599): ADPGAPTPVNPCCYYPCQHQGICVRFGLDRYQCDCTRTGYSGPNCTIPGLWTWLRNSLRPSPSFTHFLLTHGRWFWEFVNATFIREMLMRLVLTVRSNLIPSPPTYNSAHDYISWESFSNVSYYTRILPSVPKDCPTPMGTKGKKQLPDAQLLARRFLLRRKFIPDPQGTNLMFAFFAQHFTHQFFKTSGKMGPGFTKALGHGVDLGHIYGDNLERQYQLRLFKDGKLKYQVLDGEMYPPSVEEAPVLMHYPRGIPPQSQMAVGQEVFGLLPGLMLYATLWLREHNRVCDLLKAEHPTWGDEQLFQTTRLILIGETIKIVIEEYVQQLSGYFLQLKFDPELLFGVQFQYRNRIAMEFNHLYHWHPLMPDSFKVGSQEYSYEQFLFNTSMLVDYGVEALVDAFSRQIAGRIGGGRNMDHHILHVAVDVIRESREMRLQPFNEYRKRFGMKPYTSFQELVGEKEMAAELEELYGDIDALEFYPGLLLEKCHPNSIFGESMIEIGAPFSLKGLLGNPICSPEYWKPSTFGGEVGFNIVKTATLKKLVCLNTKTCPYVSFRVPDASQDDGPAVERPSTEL

Row | Structure (SMILES) | IC50 (COX-2) | IC50 (COX-1)
1 | CC[C@@]1(C)OC(=O)C(c2ccc(F)c(F)c2)=C1c1ccc(S(C)(=O)=O)cc1 [h, (5R)-3-(3,4-difluorophenyl)-5-ethyl-5-methyl-4-[4-(methylsulfonyl)phenyl] -2,5-dihydro-2-furanone] | 1.55 µM | 76 µM
2 | CCCC1(C)OC(=O)C(c2ccc(F)cc2)=C1c1ccc(S(C)(=O)=O)cc1 (stereo not drawn) [n, 3-(4-fluorophenyl)-5-methyl-4-[4-(methylsulfonyl)phenyl]-5-propyl-2,5-dihydro-2-furanone] | 2.51 µM | > 90 µM
3 | CCCC1(C)OC(=O)C(c2cccc(F)c2)=C1c1ccc(S(C)(=O)=O)cc1 (stereo not drawn) [o, 3-(3-fluorophenyl)-5-methyl-4-[4-(methylsulfonyl)phenyl]-5-propyl-2,5-dihydro-2-furanone] | 3.55 µM | –
4 | CCCC1(C)OC(=O)C(c2ccc(F)c(F)c2)=C1c1ccc(S(C)(=O)=O)cc1 (stereo not drawn) [p, 3-(3,4-difluorophenyl)-5-methyl-4-[4-(methylsulfonyl)phenyl]-5-propyl-2,5-dihydro-2-furanone] | 2.44 µM | –
5 | CCC1(CC)OC(=O)C(c2ccccc2)=C1c1ccc(S(C)(=O)=O)cc1 [t, 5,5-diethyl-4-[4-(methylsulfonyl)phenyl]-3-phenyl-2,5-dihydro-2-furanone, reference compound] | 12.2 µM | –
6 | CCC1(CC)OC(=O)C(c2ccc(F)cc2)=C1c1ccc(S(C)(=O)=O)cc1 [u, 5,5-diethyl-3-(4-fluorophenyl)-4-[4-(methylsulfonyl)phenyl]-2,5-dihydro-2-furanone, reference compound] | 13.9 µM | –

The next compounds have a lower IC50 (COX-2) than those just listed; values first:

Row | IC50 (COX-2) | IC50 (COX-1) | Structure (SMILES)
7 | < 0.37 µM | 86.1 µM | CC1(C)OC(=O)C(c2ccc(F)cc2)=C1c1ccc(S(C)(=O)=O)cc1 [Compound T3-1, 3-(4-fluorophenyl)-5,5-dimethyl-4-[4-(methylsulfonyl)phenyl]-2,5-dihydro-2-furanone, reference compound]
8 | 0.59 µM | > 30 µM | CCC1(C)OC(=O)C(c2ccc(F)cc2)=C1c1ccc(S(C)(=O)=O)cc1 (stereo not drawn) [c, 5-ethyl-3-(4-fluorophenyl)-5-methyl-4-[4-(methylsulfonyl)phenyl]-2,5-dihydro-2-furanone]
9 | 0.31 µM | 8.3 µM | CC[C@]1(C)OC(=O)C(c2ccc(F)cc2)=C1c1ccc(S(C)(=O)=O)cc1 [d, (5S)-5-ethyl-3-(4-fluorophenyl)-5-methyl-4-[4-(methylsulfonyl)phenyl]-2,5-dihydro-2-furanone]
10 | 0.13 µM | 46 µM | CC[C@@]1(C)OC(=O)C(c2ccc(F)cc2)=C1c1ccc(S(C)(=O)=O)cc1 [e, (5R)-5-ethyl-3-(4-fluorophenyl)-5-methyl-4-[4-(methylsulfonyl)phenyl]-2,5-dihydro-2-furanone]
11 | 0.53 µM | 46.4 µM | CC[C@]1(C)OC(=O)C(c2ccc(F)c(F)c2)=C1c1ccc(S(C)(=O)=O)cc1 [i, (5S)-3-(3,4-difluorophenyl)-5-ethyl-5-methyl-4-[4-(methylsulfonyl)phenyl] -2,5-dihydro-2-furanone]
